For experiment [1], the system named is phosphorylated STAT3 (P-STAT3, Tyr705). The experiment is described as follows: Western Blotting of phosphorylated STAT3 in K562 cells. It counts as cell-based, human. The conditions noted are these: leukemia cells K562, 10 μmol/L, 24 hours. The procedure:
(§1) The inhibition of the STAT3 and ERK signal pathways achieved by Mogroside I E1, Mogroside II A2 and mogrol was detected by Western Blotting, specifically:
(§2) Group 3: leukemia cells K562 (1×10^6 cells/well) were inoculated into a 6-well culture plate for staying overnight, and 0 and 10 μmol/L of Mogroside I E1 Mogroside II A2 and mogrol were added respectively, and the culture was continued for 24 hours;
(§3) After the termination of the cell culture, the culture solution was removed, and the residue was washed with PBS (0.01 mol/L, pH 7.4), and then a cell lysis solution containing protease inhibitors was added at an amount of 50 μl/well, and the mixture was placed in an ice bath for lysis at 4° C. for 30 min and then centrifuged at 14000 r/min for 10 min, and then total proteins were obtained from the supernatant;
(§4) The protein concentrations were measured with bovine serum albumin (BSA) as the standard. 50 μg of the total proteins was separated by polyacrylamide gel electrophoresis with 12% […], electrophoretically transferred to a PVDF membrane (polyvinylidene fluoride membrane), and blocked for 1 h by 5% of skim milk (containing 0.1% of Tween 20), and then antibodies p-STAT3 (Tyr705) and p-Erk1/2 as well as β-actin were added, and the primary antibody was incubated at 4° C. overnight (β-actin was used as reference in loading amount); the membrane was washed for 3 times with TBS-T, 5 min each time; secondary antibody marked by horseradish peroxidase (HRP) was added for incubation at room temperature for 1 h, the membrane was washed for 3 times with a wash solution (TBS-T), 10 min each time, and then ECL was added for incubation in dark for 5 min, and subsequently, a fluorescence imaging analyzer was used for image development and scanning analysis, and the results of Western Blotting detection are shown in FIGS. 4 to 6.
(In western blotting, separated proteins are transferred to a membrane and probed.)

For experiment [2], the system named is phosphorylated ERK1/2 (P-ERK1/2). The experiment can be described thus: Western Blotting of phosphorylated ERK1/2 in A875 cells. The conditions noted are these: melanoma A875 cells, 10 μmol/L, 24 hours. Type of experiment: cell-based, human. The procedure:
as §1
(§5) Group 2: human melanoma A875 cells (1×10^6 cells/well) were inoculated into a 6-well culture plate for staying overnight, and 0 and 10 μmol/L of Mogroside I E1, Mogroside II A2 and mogrol were added respectively, and the culture was continued for 24 hours;
as §3, §4

Experiment [3] deals with human melanoma A875 cells. The experiment is described as follows: MTT colorimetric experiment, cell growth inhibition. It counts as cell-based. To be noted: melanoma A875 cells, 0.1, 1, 10, 100, 200 and 250 μmol/L, MTT after 24 h. The procedure: (§6) MTT colorimetric experiments were performed after 24 h, respectively: prior to the finish of each experiment, 15 μl of MTT solution in a concentration of 5 mg/ml was added to each well, and the culture was continued in dark at 37° C. for 4 h, then 150 μl of DMSO was added to each well and oscillating in a shaker for 10 min, and then the residue was placed in a microplate reader to detect the optical density OD) at 490 nm, and the inhibition rate was calculated according to the following formula: cell growth inhibition rate (control group OD490—test group OD490)/control group OD490×100%.

In the next experiment the test system is lymphoma U937 cells. The description is as above. Type of experiment: cell-based. The conditions noted are these: U937 cells, 0.1, 1, 10, 100, 200 and 250 μmol/L, MTT after 24 h. The procedure:
as §6

In experiment [4] the test system is phosphorylated ERK1/2 (P-ERK1/2). The experiment is described as follows: Western Blotting of phosphorylated ERK1/2 in K562 cells. Type of experiment: cell-based, human. The conditions noted are these: leukemia cells K562, 10 μmol/L, 24 hours. The procedure:
as §1, §2, §3, §4

Experiment [5] shares this test system. The experiment is described as follows: Western Blotting of phosphorylated ERK1/2 in U937 cells. Type of experiment: cell-based. To be noted: 10 μmol/L, 24 hours. The procedure:
as §1
(§7) Group 1: histiocytic lymphoma U937 cells (1×10^6 cells/well) were inoculated into a 6-well culture plate for staying overnight, and 0 and 10 μmol/L of Mogroside I E1, Mogroside II A2 and mogrol were added respectively, and the culture was continued for 24 hours;
as §3, §4

Experiment [6] relates to phosphorylated STAT3 (P-STAT3, Tyr705). The experiment is described as follows: Western Blotting of phosphorylated STAT3 in U937 cells. Type of experiment: cell-based. The conditions noted are these: 10 μmol/L, 24 hours. The procedure: as §1, §7, §3, §4
Experiment [7] shares this test system. The experiment is described as follows: Western Blotting of phosphorylated STAT3 in A875 cells. Type of experiment: cell-based, human. The conditions noted are these: melanoma A875 cells, 10 μmol/L, 24 hours. The procedure: as §1, §5, §3, §4
Another experiment deals with leukemia cells K562. The experiment can be described thus: MTT colorimetric experiment, cell growth inhibition. It counts as cell-based, human. The conditions noted are these: leukemia cells K562, 0.1, 1, 10, 100, 200 and 250 μmol/L, MTT after 24 h. The procedure:
as §6

Consider `C[C@H](CC[C@@H](O)C(C)(C)O)[C@H]1CC[C@@]2(C)[C@@H]3CC=C4[C@@H](CC[C@H](O[C@@H]5O[C@H](CO)[C@@H](O)[C@H](O)[C@H]5O)C4(C)C)[C@]3(C)[C@H](O)C[C@]12C` [Mogroside I E1], for which the “expression level of phosphorylated STAT3 (P-STAT3)” value in experiment [1], in experiment [6] and in experiment [7] was “significantly decreased” in each case. For the same compound, the “expression level of phosphorylated ERK1/2 (P-ERK1/2)” value in experiment [2], in experiment [4] and in experiment [5] was “significantly decreased” each time. Besides, the “cell growth inhibition rate” value (in experiment [3]; in the experiment with lymphoma U937 cells; with leukemia cells K562) was “inhibitory effect on the proliferation” each time.

For the compound `C[C@H](CC[C@@H](O)C(C)(C)O)[C@H]1CC[C@@]2(C)[C@@H]3CC=C4[C@@H](CC[C@H](O[C@@H]5O[C@H](CO[C@@H]6O[C@H](CO)[C@@H](O)[C@H](O)[C@H]6O)[C@@H](O)[C@H](O)[C@H]5O)C4(C)C)[C@]3(C)[C@H](O)C[C@]12C` [Mogroside II A2], the “expression level of phosphorylated STAT3 (P-STAT3)” value in experiment [1], in experiment [6] and in experiment [7] was “significantly decreased” in each case. Besides, the “expression level of phosphorylated ERK1/2 (P-ERK1/2)” value in [2], in [4] and in experiment [5] was “significantly decreased” in each case. For the same compound, the “cell growth inhibition rate” value (in [3]; in the experiment with lymphoma U937 cells; with leukemia cells K562) was “inhibitory effect on the proliferation” each time.

Values taken from patent publication US10617734B2, “STAT3 and ERK signal pathway inhibitor comprising mogrosides and analogs thereof” (BEIJING UNIVERSITY OF AGRICULTURE, priority 2014, dated 2020).
